Read-outs that look alike come from different tables or passages of the source.
Tests used:
[1] = for Biological distribution, Blood / Biological distribution, Brain / Biological distribution, Gallbladder / Biological distribution, Heart / Biological distribution, Kidney / Biological distribution, Large intestines / Biological distribution, Liver / Biological distribution, Lung / Biological distribution, Pancreas / Biological distribution, Small intestines / Biological distribution, Spleen / Biological distribution, Stomach / Biological distribution, Thyroid / Biological distribution, Urine: control normal mice, i.v.
Method: For biological distribution in normal mice, ^125I-ODV was prepared to a radioactivity concentration of 185 kBq/mL by adding saline. A total of 20 mice fasted for 6 hr were administered ^125I-ODV via the tail vein (18.5 kBq/100 µL/mouse). After 5, 15, 30, and 60 min, normal mice were euthanized under isoflurane anesthesia (n = 4), and the following tissues were collected: blood, brain, heart, lung, thyroid, gallbladder, liver, spleen, pancreas, stomach, small intestines, large intestines, and kidney. Tissues were weighed, and radioactivity was quantified using a γ-ray counter to calculate the %ID or percent injected dose per gram of tissue (%ID/g).

[2] = up to seven days at 4 °C
Method: The stability of ^125I-ODV was analyzed by TLC. The elution of ^125I-ODVwas spotted onto a silica gel TLC plate 60 F254 (Merck, Darmstadt, Germany). The TLC plate and the TLC spots were developed using methanol/acetate at a ratio of 100:1. After development and complete drying, the TLC plates were cut into 21 fractions, and the radiography associated with each fraction was quantified using a γ-ray counter (AccuFLEXγ 7000, Aloka, Tokyo, Japan). The fractional ratios of ^125I^− and ^125I-ODV were calculated by dividing the radioactive counts for each fraction by the total radioactivity count.

[3] = Method: ^125I-ODV was prepared to a radioactive concentration of 30 MBq/mL by the addition of saline. For metabolite analysis in CYP-inhibited mice, we produced model mice with reduced CYP3A4 or CYP2D6 activity by selective inhibition using ketoconazole or paroxetine. CYP3A4-inhibited mice were injected intraperitoneally with 50 mg/kg of ketoconazole at 60 min before injection of ^125I-ODV, and CYP2D6-inhibited mice were injected intraperitoneally with 30 mg/kg of paroxetine at 60 min before injection of ^125I-ODV. Each of three mice was administered ^125I-ODV via the tail vein (3.0 MBq/100 µL/mouse). At 30 min, the three fasted mice were euthanized under isoflurane, and each gallbladder was collected. The radioactive products in bile were analyzed by TLC using methanol/acetate at a ratio of 100:1. Bile was directly spotted onto a TLC plate.
[4] = test system: CYP; conditions: for fraction of 125I-ODV / peak of 125I-ODV metabolite: NADPH [+]
Method: Animal studies were approved by the Animal Care Committee at Kanazawa University (AP-173851) and were conducted in accordance with international standards for animal welfare and institutional guidelines. For preparation of the pooled mouse liver homogenates (MLH), three six-week-old ddY mice (Japan SLC, Tokyo, Japan) were euthanized under anesthesia with isoflurane, and the removed livers were weighed. After adding Krebs–Ringer phosphate buffer (pH 7.4), the pooled livers were homogenized with an ultrasonic homogenizer (SONIFIER250, Branson, MO, USA), and the protein content was measured according to the bicinchoninic acid method. The pooled MLH was stored at −80 °C.
For analysis of NADPH-mediated metabolism of ^125I-ODV, NADPH was used as an energy source of CYP-mediated metabolism. Adding an NADPH-generating system produced a state in which CYP was active. NADPH-mediated metabolism of ^125I-ODV was examined in a mixture consisting of an NADPH-generating system (0.5 mM β-NADP^+, 5 mM MgCl2, 5 mM G6P, and 1 U/mL G6PD), 100 mM sodium potassium phosphate buffer (pH 7.4), 50 μM EDTA disodium salt, and 1000 μg protein/20 μL pooled MLH in a final volume of 250 μL (NADPH [+]). […] The samples were incubated at 37 °C for 5, 15, 30, and 60 min with gentle shaking, ethanol was added to stop the reactions, and the samples were centrifuged at 18,000 g for 5 min. The supernatants in each sample were analyzed by HPLC. The mobile phase consisted of 70% 20 mM KH2PO4 buffer (pH 4.0) and 30% acetonitrile at a flow rate of 1.0 mL/min (n = 3).

[5] = normal mice, after 5 min of administration
[6] = normal and CYP-inhibited mice, TLC of bile

## CN(C)CC(c1ccc(O)c([125I])c1)C1(O)CCCCC1 (stereo not shown) [^125I-ODV, iodine-125-labeled O-desmethylvenlafaxine]
[1]; 5 min
  Biological distribution, Blood: 1.89 %ID/g
  Biological distribution, Brain: 0.80 %ID/g
  Biological distribution, Gallbladder: 4.31 %ID/g
  Biological distribution, Heart: 5.64 %ID/g
  Biological distribution, Kidney: 22.95 %ID/g
  Biological distribution, Large intestines: 1.32 %ID/organ
  Biological distribution, Liver: 6.91 %ID/g
  Biological distribution, Lung: 27.04 %ID/g
  Biological distribution, Pancreas: 7.87 %ID/g
  Biological distribution, Small intestines: 6.85 %ID/organ
  Biological distribution, Spleen: 9.22 %ID/g
  Biological distribution, Stomach: 2.44 %ID/organ
  Biological distribution, Thyroid: 0.06 %ID/organ
  Biological distribution, Urine: 0.63 %ID/organ
[1]; 15 min
  Biological distribution, Blood: 1.31 %ID/g
  Biological distribution, Brain: 0.75 %ID/g
  Biological distribution, Gallbladder: 5.26 %ID/g
  Biological distribution, Heart: 2.71 %ID/g
  Biological distribution, Kidney: 16.37 %ID/g
  Biological distribution, Large intestines: 1.18 %ID/organ
  Biological distribution, Liver: 6.04 %ID/g
  Biological distribution, Lung: 16.75 %ID/g
  Biological distribution, Pancreas: 6.04 %ID/g
  Biological distribution, Small intestines: 7.70 %ID/organ
  Biological distribution, Spleen: 4.79 %ID/g
  Biological distribution, Stomach: 3.19 %ID/organ
  Biological distribution, Thyroid: 0.03 %ID/organ
  Biological distribution, Urine: 3.37 %ID/organ
[1]; 30 min
  Biological distribution, Blood: 1.34 %ID/g
  Biological distribution, Brain: 0.73 %ID/g
  Biological distribution, Gallbladder: 24.23 %ID/g
  Biological distribution, Heart: 2.04 %ID/g
  Biological distribution, Kidney: 14.27 %ID/g
  Biological distribution, Large intestines: 0.68 %ID/organ
  Biological distribution, Liver: 5.45 %ID/g
  Biological distribution, Lung: 13.30 %ID/g
  Biological distribution, Pancreas: 5.02 %ID/g
  Biological distribution, Small intestines: 8.47 %ID/organ
  Biological distribution, Spleen: 3.45 %ID/g
  Biological distribution, Stomach: 2.75 %ID/organ
  Biological distribution, Thyroid: 0.04 %ID/organ
  Biological distribution, Urine: 3.69 %ID/organ
[1]; 60 min
  Biological distribution, Blood: 0.74 %ID/g
  Biological distribution, Brain: 0.60 %ID/g
  Biological distribution, Gallbladder: 33.05 %ID/g
  Biological distribution, Heart: 1.00 %ID/g
  Biological distribution, Kidney: 9.42 %ID/g
  Biological distribution, Large intestines: 0.47 %ID/organ
  Biological distribution, Liver: 2.89 %ID/g
  Biological distribution, Lung: 5.01 %ID/g
  Biological distribution, Pancreas: 2.92 %ID/g
  Biological distribution, Small intestines: 11.03 %ID/organ
  Biological distribution, Spleen: 1.75 %ID/g
  Biological distribution, Stomach: 1.88 %ID/organ
  Biological distribution, Thyroid: 0.02 %ID/organ
  Biological distribution, Urine: 7.31 %ID/organ
[1]; [5]
  accumulation in the kidneys: more than 20%
  accumulation in the lungs: more than 20%
[2]
  radiochemical purity: more than 98%
[3]; gallbladders collected 60 min after injection
  metabolites of 125I-ODV present in bile: more than 99%
[3]; [6]
  fraction of 125I-ODV in bile: not found
  fractional ratio of the metabolite in bile: more than 99%
[4]; end value of the decrease
  fraction of 125I-ODV: ~54%
[4]; end value of the increase
  peak of 125I-ODV metabolite: ~46%
[4]; start value of the decrease
  fraction of 125I-ODV: about 85%
[4]; start value of the increase
  peak of 125I-ODV metabolite: about 0%
[4]; NADPH [−], 37 °C, 15 min
  percentage of metabolite: 1.52%

— PMC9569593, “Measurement of Hepatic CYP3A4 and 2D6 Activity Using Radioiodine-Labeled O-Desmethylvenlafaxine” (International Journal of Molecular Sciences, 2022)
